# Reference: PubChem BioAssay (NCI)
#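 Briefly, cells in 96-well plates were exposed to five compound concentrations for 48 h, and endpoints were estimated by linear interpolation. Definition used: TGI = concentration required for complete inhibition of growth.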
# Key:
# Test in all cases: NCI tumour cell line growth inhibition, 48 h
# 786-0 renal = tested on: 786-0 renal
# A498 renal = tested on: A498 renal
# A549 NSCLC = tested on: A549 NSCLC
# ACHN renal = tested on: ACHN renal
# CAKI-1 renal = tested on: CAKI-1 renal
# CCRF-CEM leukemia = tested on: CCRF-CEM leukemia
# COLO 205 colon = tested on: COLO 205 colon
# DLD-1 colon = tested on: DLD-1 colon
# DMS 114 small cell lung = tested on: DMS 114 small cell lung
# DMS 273 small cell lung = tested on: DMS 273 small cell lung
# EKVX NSCLC = tested on: EKVX NSCLC
# HCC-2998 colon = tested on: HCC-2998 colon
# HCT-116 colon = tested on: HCT-116 colon
# HCT-15 colon = tested on: HCT-15 colon
# HL-60(TB) leukemia = tested on: HL-60(TB) leukemia
# HOP-18 NSCLC = tested on: HOP-18 NSCLC
# HOP-62 NSCLC = tested on: HOP-62 NSCLC
# HOP-92 NSCLC = tested on: HOP-92 NSCLC
# HT29 colon = tested on: HT29 colon
# IGROV1 ovarian = tested on: IGROV1 ovarian
# K-562 leukemia = tested on: K-562 leukemia
# KM12 colon = tested on: KM12 colon
# KM20L2 colon = tested on: KM20L2 colon
# LOX IMVI melanoma = tested on: LOX IMVI melanoma
# LXFL 529 NSCLC = tested on: LXFL 529 NSCLC
# M14 melanoma = tested on: M14 melanoma
# M19-MEL melanoma = tested on: M19-MEL melanoma
# MALME-3M melanoma = tested on: MALME-3M melanoma
# MOLT-4 leukemia = tested on: MOLT-4 leukemia
# NCI-H226 lung = tested on: NCI-H226 lung
# NCI-H460 lung = tested on: NCI-H460 lung
# NCI-H522 lung = tested on: NCI-H522 lung
# OVCAR-3 ovarian = tested on: OVCAR-3 ovarian
# OVCAR-4 ovarian = tested on: OVCAR-4 ovarian
# OVCAR-5 ovarian = tested on: OVCAR-5 ovarian
# OVCAR-8 ovarian = tested on: OVCAR-8 ovarian
# RPMI-8226 leukemia = tested on: RPMI-8226 leukemia
# RXF 393 renal = tested on: RXF 393 renal
# SF-268 CNS = tested on: SF-268 CNS
# SF-295 CNS = tested on: SF-295 CNS
# SF-539 CNS = tested on: SF-539 CNS
# SK-MEL-2 melanoma = tested on: SK-MEL-2 melanoma
# SK-MEL-28 melanoma = tested on: SK-MEL-28 melanoma
# SK-MEL-5 melanoma = tested on: SK-MEL-5 melanoma
# SK-OV-3 ovarian = tested on: SK-OV-3 ovarian
# SN12C renal = tested on: SN12C renal
# SNB-19 CNS = tested on: SNB-19 CNS
# SNB-75 CNS = tested on: SNB-75 CNS
# SNB-78 CNS = tested on: SNB-78 CNS
# SW-620 colon = tested on: SW-620 colon
# TK-10 renal = tested on: TK-10 renal
# U251 CNS = tested on: U251 CNS
# UACC-257 melanoma = tested on: UACC-257 melanoma
# UACC-62 melanoma = tested on: UACC-62 melanoma
# UO-31 renal = tested on: UO-31 renal
# XF 498 CNS = tested on: XF 498 CNS
# NCI-H23 lung = tested on: NCI-H23 lung
# RXF-631 renal = tested on: RXF-631 renal
# SR leukemia = tested on: SR leukemia
smiles,measurement,setting,value
N#C/C(=C1\OC(=N)C(c2ccccc2)C1=O)c1ccccc1 (centres undefined),TGI,786-0 renal,> 56.8 µM
same,TGI,A498 renal,> 100 µM
same,TGI,A549 NSCLC,> 100 µM
same,TGI,ACHN renal,31.8 µM
same,TGI,CAKI-1 renal,> 96.6 µM
same,TGI,CCRF-CEM leukemia,48.6 µM
same,TGI,COLO 205 colon,44.2 µM
same,TGI,DLD-1 colon,39.1 µM
same,TGI,DMS 114 small cell lung,> 82.2 µM
same,TGI,DMS 273 small cell lung,> 100 µM
same,TGI,EKVX NSCLC,> 73.2 µM
same,TGI,HCC-2998 colon,> 100 µM
same,TGI,HCT-116 colon,31.6 µM
same,TGI,HCT-15 colon,60.2 µM
same,TGI,HL-60(TB) leukemia,54.4 µM
same,TGI,HOP-18 NSCLC,92.3 µM
same,TGI,HOP-62 NSCLC,> 100 µM
same,TGI,HOP-92 NSCLC,> 71.3 µM
same,TGI,HT29 colon,57.7 µM
same,TGI,IGROV1 ovarian,> 80.7 µM
same,TGI,K-562 leukemia,74.6 µM
same,TGI,KM12 colon,> 100 µM
same,TGI,KM20L2 colon,> 100 µM
same,TGI,LOX IMVI melanoma,91.5 µM
same,TGI,LXFL 529 NSCLC,36.3 µM
same,TGI,M14 melanoma,> 59.5 µM
same,TGI,M19-MEL melanoma,56.5 µM
same,TGI,MALME-3M melanoma,36.8 µM
same,TGI,MOLT-4 leukemia,74.6 µM
same,TGI,NCI-H226 lung,> 100 µM
same,TGI,NCI-H460 lung,> 100 µM
same,TGI,NCI-H522 lung,22.2 µM
same,TGI,OVCAR-3 ovarian,> 67.7 µM
same,TGI,OVCAR-4 ovarian,> 100 µM
same,TGI,OVCAR-5 ovarian,> 100 µM
same,TGI,OVCAR-8 ovarian,> 89.2 µM
same,TGI,RPMI-8226 leukemia,73.3 µM
same,TGI,RXF 393 renal,31.8 µM
same,TGI,SF-268 CNS,> 100 µM
same,TGI,SF-295 CNS,> 100 µM
same,TGI,SF-539 CNS,> 31.6 µM
same,TGI,SK-MEL-2 melanoma,> 100 µM
same,TGI,SK-MEL-28 melanoma,20.2 µM
same,TGI,SK-MEL-5 melanoma,> 64.2 µM
same,TGI,SK-OV-3 ovarian,> 100 µM
same,TGI,SN12C renal,> 81.6 µM
same,TGI,SNB-19 CNS,> 100 µM
same,TGI,SNB-75 CNS,> 85.7 µM
same,TGI,SNB-78 CNS,> 100 µM
same,TGI,SW-620 colon,59.1 µM
same,TGI,TK-10 renal,68.5 µM
same,TGI,U251 CNS,> 100 µM
same,TGI,UACC-257 melanoma,59.3 µM
same,TGI,UACC-62 melanoma,52.7 µM
same,TGI,UO-31 renal,42.8 µM
same,TGI,XF 498 CNS,46.2 µM
COc1cc(/C=C(\NC(=O)c2ccccc2)c2nc3ncncc3[nH]2)cc(OC)c1OC,TGI,786-0 renal,> 100 µM
same,TGI,A549 NSCLC,> 100 µM
same,TGI,ACHN renal,> 100 µM
same,TGI,CAKI-1 renal,> 100 µM
same,TGI,CCRF-CEM leukemia,> 100 µM
same,TGI,COLO 205 colon,> 100 µM
same,TGI,DLD-1 colon,> 100 µM
same,TGI,DMS 273 small cell lung,> 100 µM
same,TGI,EKVX NSCLC,> 100 µM
same,TGI,HCC-2998 colon,> 100 µM
same,TGI,HCT-15 colon,> 100 µM
same,TGI,HL-60(TB) leukemia,> 100 µM
same,TGI,HOP-92 NSCLC,> 100 µM
same,TGI,HT29 colon,> 100 µM
same,TGI,IGROV1 ovarian,> 100 µM
same,TGI,K-562 leukemia,> 100 µM
same,TGI,KM12 colon,> 100 µM
same,TGI,KM20L2 colon,> 100 µM
same,TGI,LXFL 529 NSCLC,> 100 µM
same,TGI,M14 melanoma,> 100 µM
same,TGI,M19-MEL melanoma,> 100 µM
same,TGI,MALME-3M melanoma,> 100 µM
same,TGI,MOLT-4 leukemia,> 100 µM
same,TGI,NCI-H23 lung,> 100 µM
same,TGI,NCI-H522 lung,> 100 µM
same,TGI,OVCAR-3 ovarian,> 100 µM
same,TGI,OVCAR-4 ovarian,> 100 µM
same,TGI,OVCAR-5 ovarian,> 100 µM
same,TGI,OVCAR-8 ovarian,> 100 µM
same,TGI,RXF 393 renal,> 100 µM
same,TGI,RXF-631 renal,> 100 µM
same,TGI,SF-268 CNS,> 100 µM
same,TGI,SF-295 CNS,> 100 µM
same,TGI,SF-539 CNS,> 100 µM
same,TGI,SK-MEL-2 melanoma,> 100 µM
same,TGI,SK-MEL-28 melanoma,> 100 µM
same,TGI,SK-MEL-5 melanoma,> 100 µM
same,TGI,SK-OV-3 ovarian,> 100 µM
same,TGI,SN12C renal,> 100 µM
same,TGI,SNB-19 CNS,> 100 µM
same,TGI,SNB-78 CNS,> 100 µM
same,TGI,SR leukemia,> 100 µM
same,TGI,SW-620 colon,> 100 µM
same,TGI,TK-10 renal,> 100 µM
same,TGI,U251 CNS,> 100 µM
same,TGI,UACC-62 melanoma,> 100 µM
same,TGI,UO-31 renal,> 100 µM
same,TGI,XF 498 CNS,> 100 µM
